In patent US9326506B2, “Preparation method, agricultural composition and applications of natural brassinolide analogs” (CHENGDU NEWSUN CROPSCIENCE CO., LTD, priority 2012, dated 2016):

Test system: rice
Assay: Low temperature assay on rice seedlings
Assay type: in vivo
Description: According to a low temperature assay, we measured parameters including plant height, number of leaf, area of leaf, number of tiller, weight of root at low temperature to completely determine effects of the natural brassinolide analogues on the resistance to low temperature of a plant.
The natural brassinolide analogues, BR1, BR2, BR3, BR4, BR5 and BR6, used herein, were those prepared by the method of Example 1. Respectively the analogues were dissolved into 95% (V/V) ethanol solution, and then diluted with pure water to 1 mg/L, 0.1 mg/L, 0.01 mg/L, 0.001 mg/L and 0.0001 mg/L. In addition, pure water was used as a control.
After rice seeds were disinfected by using 5% sodium hypochlorite solution treatment, they were rinsed with distilled water until their pH>7, placed into a petri dish in a dark incubator, and cultured by using water at 30° C.±2° C. for 9 days. Then respectively the nine-day-old etiolated seedlings of rice were immersed in the above solutions containing different concentrations of the natural brassinolide analogues or pure water, and cultured at the temperature of 1° C., 2° C., 3° C., 4° C. and 5° C. for 24 hr. The parameters including plant height, area of leaf and weight of root after 3, 6, 9 and 12 days and number of leaf and number of tiller after 12 days were measured.

## CC[C@@H](C(C)C)[C@@H](O)[C@H](O)[C@@H](C)[C@H]1CCC2C3COC(=O)C4C[C@H](O)[C@H](O)C[C@]4(C)C3CC[C@@]21C (stereo partly drawn) [BR2]
0.0001 mg/l, 1 °C, 3 days
  Area of leaf: 9.8 cm^2
  Height: 6.8 cm
  Weight of root: 2.8 g
0.0001 mg/l, 1 °C, 6 days
  Area of leaf: 11.2 cm^2
  Height: 6.9 cm
  Weight of root: 3.1 g
0.0001 mg/l, 1 °C, 9 days
  Area of leaf: 12.4 cm^2
  Height: 7 cm
  Weight of root: 3.4 g
0.0001 mg/l, 1 °C, 12 days
  Area of leaf: 13.1 cm^2
  Height: 7.2 cm
  Number of leaf: 3
  Number of tiller: 3
  Weight of root: 3.9 g
0.0001 mg/l, 2 °C, 3 days
  Area of leaf: 10 cm^2
  Height: 6.8 cm
  Weight of root: 2.8 g
0.0001 mg/l, 2 °C, 6 days
  Area of leaf: 11.7 cm^2
  Height: 7 cm
  Weight of root: 3.0 g
0.0001 mg/l, 2 °C, 9 days
  Area of leaf: 12.4 cm^2
  Height: 7.1 cm
  Weight of root: 3.2 g
0.0001 mg/l, 2 °C, 12 days
  Area of leaf: 13 cm^2
  Height: 7.4 cm
  Number of leaf: 3
  Number of tiller: 3
  Weight of root: 3.9 g
0.0001 mg/l, 3 °C, 3 days
  Area of leaf: 10 cm^2
  Height: 6.9 cm
  Weight of root: 2.5 g
0.0001 mg/l, 3 °C, 6 days
  Area of leaf: 11.8 cm^2
  Height: 7.2 cm
  Weight of root: 2.6 g
0.0001 mg/l, 3 °C, 9 days
  Area of leaf: 12.3 cm^2
  Height: 7.4 cm
  Weight of root: 2.9 g
0.0001 mg/l, 3 °C, 12 days
  Area of leaf: 13.2 cm^2
  Height: 7.5 cm
  Number of leaf: 3
  Number of tiller: 2
  Weight of root: 2.9 g
0.0001 mg/l, 4 °C, 3 days
  Area of leaf: 10 cm^2
  Height: 6.9 cm
  Weight of root: 2.5 g
0.0001 mg/l, 4 °C, 6 days
  Area of leaf: 11.7 cm^2
  Height: 7.3 cm
  Weight of root: 2.6 g
0.0001 mg/l, 4 °C, 9 days
  Area of leaf: 13 cm^2
  Height: 7.5 cm
  Weight of root: 2.9 g
0.0001 mg/l, 4 °C, 12 days
  Area of leaf: 13.4 cm^2
  Height: 7.6 cm
  Number of leaf: 3
  Number of tiller: 2
  Weight of root: 2.9 g
0.0001 mg/l, 5 °C, 3 days
  Area of leaf: 10.2 cm^2
  Height: 7.0 cm
  Weight of root: 2.5 g
0.0001 mg/l, 5 °C, 6 days
  Area of leaf: 12 cm^2
  Height: 7.4 cm
  Weight of root: 2.7 g
0.0001 mg/l, 5 °C, 9 days
  Area of leaf: 13.6 cm^2
  Height: 7.5 cm
  Weight of root: 2.9 g
0.0001 mg/l, 5 °C, 12 days
  Area of leaf: 14 cm^2
  Height: 7.7 cm
  Number of leaf: 3
  Number of tiller: 2
  Weight of root: 3.0 g
0.001 mg/l, 1 °C, 3 days
  Area of leaf: 10.1 cm^2
  Height: 6.9 cm
  Weight of root: 2.8 g
0.001 mg/l, 1 °C, 6 days
  Area of leaf: 11.3 cm^2
  Height: 7.1 cm
  Weight of root: 3.1 g
0.001 mg/l, 1 °C, 9 days
  Area of leaf: 12.6 cm^2
  Height: 7.1 cm
  Weight of root: 3.4 g
0.001 mg/l, 1 °C, 12 days
  Area of leaf: 13 cm^2
  Height: 7.3 cm
  Number of leaf: 3
  Number of tiller: 3
  Weight of root: 3.9 g
0.001 mg/l, 2 °C, 3 days
  Area of leaf: 9.8 cm^2
  Height: 6.9 cm
  Weight of root: 2.8 g
